Where no end group is shown, it is not given here.
Tests used:
CAC [1] = test: CAC mobilization assay in healthy subjects and diabetic patients; type: in vivo, human; conditions: diabetic patients compared to normal subjects, 6 hours treatment; FIG. 3B
Description: All the subjects underwent the following testing session: • UAG (3.0 μg/kg/h iv. as infusion for 12 h from 0 to 12 hours); • isotonic saline (infusion from 0 to 12 hours).
All tests were performed starting at 08.30-09.00 a.m. after overnight fasting, 30 minutes after an indwelling catheter had been placed into a forearm vein by slow infusion of isotonic saline. Blood samples were taken at 0 h, 6 h and 12 h.
Mobilization assay—CAC recovered from healthy subjects and diabetic patients, treated with UAG or saline for 6 h and 12 h, were evaluated. Total number of MNC was counted by 3 independent investigators. The percentage of CAC was calculated by comparing CAC obtained from diabetic patients and healthy donors, treated for 6 h and 12 h with UAG, AG or saline, to CAC recovered at time 0.

CAC [2] = test: CAC cell-cycle progression (S phase, FACS); type: cell-based, human; conditions: cultured CAC, still evident after 7 days; FIG. 1A
Description: Peripheral-blood mononuclear cells (PB-MNC) isolated by Fycoll Histopaque 1077 (Sigma) were resuspended in 20% FBS 199 Medium and plated on fibronectin-coated dishes (Biocoat, Becton Dickinson Labware) as described by Hill et al. (Ref. 19). Human UAG studies were performed on CAC recovered from normal donors and diabetic patients. The purity of sorted cells was assessed by FACS analysis (Ref. 20). For experiments, the isolated CAC were cultured under 5% CO2 at 37° C. for 4 days on 20 μg/ml fibronectin-coated dishes in EGM-2 medium containing 10% FBS, hydrocortisone, human Fibroblast Growth Factor, Vascular Endothelial Growth Factor, Insulin Growth Factor 1, ascorbic acid, human Epidermal Growth Factor, gentamicin and amphotericin-B (Cambrex, Walkersville, Md., USA) alone or in combination with 1 μM UAG and 1.2 mg/ml AGE. In selected experiments, isolated CAC were cultured in EBM-2 medium (Cambrex, Walkersville, Md., USA) supplemented with 10 ng/ml of IL-3. […]
Flow Cytometry—To analyze CAC cell-cycle progression, cells recovered from diabetic, healthy subjects, NOD/SCID, ob/ob and wt mice, were cultured in EBM-2 supplemented with IL-3 (10 ng/ml), FACS analysis was performed as previously described (Ref. 20). Cell surface molecules were evaluated by flow cytometry as previously described (Ref. 24). Frequency of marker-positive cells is expressed as mean±standard deviation (SD).

1-NH2Gly-Ser-Ser-Phe-Leu-Ser-Pro-Glu-His-Gln-Arg-Val-Gln-Gln-Arg-Lys-Glu-Ser-Lys-Lys-Pro-Pro-Ala-Lys-Leu-Gln-Pro-Arg-28 (GSSFLSPEHQRVQQRKESKKPPAKLQPR; ends and bridges not checked; listed as Homo sapiens) [UAG]
number of recovered CAC (CAC [1]): strong increase in the number of recovered cells
percentage of cells in S phase (CAC [2]): significant increase in the percentage of cells in S phase
